Structures can show the parent of a compound that is named as a salt. Where two headings read alike, the source gives them in different places.

The subject of assay [1] is reference strain of T. tonsurans. The assay is described as follows: Preliminary screening of 7,676 compounds (384 well format), growth read at 600 nm. The format is cell-based, Trichophyton tonsurans. The following applies: preliminary screen. The protocol:
(§1) Materials Used: • 10 mm×100 mm petri plate of dermatophyte culture grown to confluency (>14 days) on Sabouraud's dextrose agar (Becton Dickinson, Sparks Md.) containing 50 mg/L chloramphenicol and 500 mg/L cycloheximide (Sigma Chemical Company, St. Louis Mo.) (see appendix A for recipe). • 1× sterile Phosphate Buffered Saline (Sigma Chemical Company, St. Louis Mo.). • (2) 15 mL sterile disposable conical tubes (Thermo Fisher Scientific, Rochester N.Y.). • Disposable sterile inoculating loop (Fisher Scientific, Hanover Park Ill.). • Disposable sterile transfer pipette (Fisher Scientific, Hanover Park Ill.). • Sterilized 2″×2″ 4 ply gauze (Medline Industries, Mundelein Ill.) • 30 mL sterile disposable syringe (Becton Dickinson, Franklin Lakes N.J.). • Hemocytometer (Fisher Scientific, Hanover Park Ill.).
(§2) Spore Prep Procedure (performed aseptically in a biosafety cabinet): • The fungal plate was flooded with 10 mL of sterile 1×PBS and with a sterile disposable inoculating loop, then the surface was gently scraped until all the fungal material (hyphae and spores) was liberated into the PBS. • Using a disposable transfer pipette, the entire volume of PBS/spores was transferred from the plate into a sterile 15 mL conical tube. • Next, 2 mL of sterile 1×PBS was added to the plate and swirled to rinse. • Using the transfer pipette, the remaining volume of PBS/spores was transferred from the plate to the 15 mL conical. • Then, the 15 mL tube was capped and vortexed at max speed for 10-15 seconds, set aside. • The plunger from the 30 mL syringe was then removed and the barrel was packed with 1 square of sterile 2″×2″ gauze. • Using the plunger, the gauze was firmly packed at the bottom of the barrel then the plunger was removed. • The syringe barrel was placed into a new sterile 15 mL conical tube and the entire contents of the 15 mL PBS/spore suspension was poured directly onto the gauze in the syringe barrel. • The plunger was then gently inserted into the barrel and depressed all the way down to filter the spore/hyphal suspension through the gauze. • The plunger was gently removed and additional 2 mL of sterile PBS was added back to the original 15 mL conical tube.
Screening (384 well format):
Note: final concentration of DMSO was not to exceed 0.5%.
NOTE: there was residual spore suspension, the calculations above allowed for overage to ensure enough suspension is made for each plate. • Using the peristaltic pump, the automated dispenser was programmed to deliver 35 μL of 2×SabDEX broth to each well in the 384 well plate. The pump was then purged of growth media and re-primed with the spore suspension. The dispenser was then programmed to deliver 35 μL of spore suspension to each test well (to include+growth controls). • Negative growth controls were made by manually pipetting 35 μL of sterile 1×PBS from a sterile multi-channel boat into each (−) control well using a 100 μL pipette. • Each plate was given a numerical designation, dated, sealed with an EDGE® seal and placed in a 32° C. incubator for 48 hours. • After incubation, the seal was carefully removed and the plate read at 600 nm using a single point read on a microplate reader. • If more time was required, the plate was re-sealed and incubated an additional 24 hours.

Assay [2] has the same test system. The assay is described as follows: MIC / dose-response testing against reference strain of T. tonsurans. In kind it is cell-based, Trichophyton tonsurans. The protocol: as §1, §2
(§3) MIC Testing (96 well format):
(§4) To Make the Spore Suspension:
(§5) • A 2 mM stock of the compound to be tested was made in 100% DMSO in a sterile 1.5 mL microfuge tube. • Vortexed the tube vigorously for 1 minute, then protected the compound from light and rocked or shook for 1 hour at room temperature to fully dissolve. • NOTE: Because the 2× culture media was diluted with an equal volume of spore/PBS solution to achieve a 1× final media concentration, the high standard for the range of compound to be tested was made at 2× the highest concentration desired and contain a final DMSO concentration of 0.5%.
(§6) To generate the range of compound to be tested, the following dilution protocol was performed:
(§7) (a) The high standard was made:
(§8) The result was 1000 μL of a 20 μM stock in 2× Culture Medium with a final [DMSO] of 1%.
(§9) (b) The drug dilution range to be tested was made by serially diluting the high standard 1:1 with 2× Culture Medium/1% DMSO.
(§10) Aseptically added 100 μL of the drug/media manually to each well according to the plate map in FIG. 2, as follows: […]

Assay [3] has as its system 5 genetically distinct strain of T. tonsurans. The assay is described as follows: MIC testing against 5 genetically distinct strains of T. tonsurans. Particulars: Trichophyton tonsurans. In kind it is cell-based. The protocol: as §1, §2, §3, §4, §5, §6, §7, §8, §9, §10
The next assay has as its system T. rubrum. The assay can be described thus: MIC testing against different Trichophyton species: T. rubrum. The format is cell-based. The protocol: (§11) Materials Used: • 10 mm×100 mm petri plate of dermatophyte culture grown to confluency (>14 days) on Sabouraud's dextrose agar (Becton Dickinson, Sparks Md.) containing 50 mg/L chloramphenicol and 500 mg/L cycloheximide (Sigma Chemical Company, St. Louis Mo.) (see appendix A for recipe). • 1× sterile Phosphate Buffered Saline (Sigma Chemical Company, St. Louis Mo.). • (2) 15 mL sterile disposable conical tubes (Thermo Fisher Scientific, Rochester N.Y.). • Disposable sterile inoculating loop (Fisher Scientific, Hanover Park Ill.). • Disposable sterile transfer pipette (Fisher Scientific, Hanover Park Ill.). • Sterilized 2″×2″ 4 ply gauze (Medline Industries, Mundelein Ill.) • 30 mL sterile disposable syringe (Becton Dickinson, Franklin Lakes N.J.). • Hemocytometer (Fisher Scientific, Hanover Park Ill.). […]

In another assay the test system is T. equinum. The assay can be described thus: MIC testing against different Trichophyton species: T. equinum. In kind it is cell-based. The protocol:
as §11

For another assay, the system named is T. mentagrophytes. The assay can be described thus: MIC testing against different Trichophyton species: T. mentagrophytes. In kind it is cell-based. The protocol: as §11
[4] abbreviates: Trichophyton tonsurans, dose response (DR plate), reference strain of T. tonsurans, read-out: rMIC50.
Setting [5] is: Trichophyton tonsurans, range, reference strain of T. tonsurans (Table 2), read-out: IC50 [range].
Where [6] appears, read: Trichophyton tonsurans, reference strain of T. tonsurans (Table 2), read-out: IC50.

Consider `COCc1c(C(C)C)nc(C(C)C)c(/C=C/[C@@H](O)C[C@@H](O)CC(=O)O)c1-c1ccc(F)cc1` [Cerivastatin], for which the “Prelim H ratio” value in assay [1] was found to be 1.06. Moreover, the “Prelim L ratio” value in assay [1] worked out at 2.28. Besides, the IC50 in assay [2] (setting [4]) is less than 10 nM; in assay [2] (setting [5]), 3 to 58 nM; in assay [2] (setting [6]) it was 10 nM; in assay [3] (T. tonsurans strain 0924-0254) it was 3 nM; in assay [3] (T. tonsurans strain 0924-1093) it was 5 nM; in assay [3] (T. tonsurans strain 0924-1456) it was 15 nM. The IC50 in assay [3] (T. tonsurans strain 0924-1669) stood at 5 nM; in assay [3] (T. tonsurans strain 1119-0616) it was 10 nM; with T. rubrum, 68 nM; with T. equinum it was 21 nM; with T. mentagrophytes it was 19 nM.
Turning to `Clc1ccc(C(Cn2ccnc2)OCc2ccsc2Cl)c(Cl)c1` (centres unmarked) [Tioconazole], in assay [1], the “Prelim H ratio” value is recorded as 1.03 and the “Prelim L ratio” value turned out to be 2.02. Moreover, in assay [2] (setting [4]), the IC50 is 18 nM.
In the same order, the values of `Cc1cccc(N(C)C(=S)Oc2ccc3ccccc3c2)c1` [Tolnaftate] are 1.01, 1.99 and 13 nM.
As for `C[C@H]1CC[C@]2(NC1)O[C@H]1C[C@H]3[C@@H]4CC[C@H]5C[C@@H](O)CC[C@]5(C)[C@H]4CC[C@]3(C)[C@H]1[C@@H]2C` [Tomatidine HCl], in assay [1], the “Prelim H ratio” value is given as 0.45 and the “Prelim L ratio” value is reported as 0.92. The IC50 in assay [2] (setting [4]) was found to be 486 nM.
On the same counts, the results for `CSc1nc2cc(Cl)c(Oc3cccc(Cl)c3Cl)cc2[nH]1` [Triclabendazole] are 1.07, 2.14 and 212 nM.
On to `Oc1cc(Cl)ccc1Oc1ccc(Cl)cc1Cl` [Triclosan], for which, in assay [1], the “Prelim H ratio” value was found to be 1.04 and the “Prelim L ratio” value was 2.08. In assay [2] (setting [4]), the IC50 worked out at 656 nM.
In the same order, the values of `C[C@@H](c1ncncc1F)[C@](O)(Cn1cncn1)c1ccc(F)cc1F` [Voriconazole] are 1.00, 1.85 and 84 nM.
For `CC[C@H](C)C(=O)O[C@H]1CCC=C2C=C[C@H](C)[C@H](CC[C@@H]3C[C@@H](O)CC(=O)O3)[C@H]21` [mevastatin], in assay [1], the “Prelim H ratio” value is 0.45 and the “Prelim L ratio” value is 0.86. Besides, the IC50 in assay [2] (setting [4]) is 650 nM. Further, the IC50 in assay [2] (setting [6]) was found to be 650 nM.
As for `O=C(O)C[C@H](O)C[C@H](O)/C=C/c1c(C2CC2)nc2ccccc2c1-c1ccc(F)cc1` [pitavastatin], the IC50 is 3 to 32 nM in assay [2] (setting [5]); 30 nM in assay [2] (setting [6]); 3 nM in assay [3] (T. tonsurans strain 0924-0254); 18 nM in assay [3] (T. tonsurans strain 0924-1093); 24 nM in assay [3] (T. tonsurans strain 0924-1456); 25 nM in assay [3] (T. tonsurans strain 0924-1669). The IC50 is 27 nM in assay [3] (T. tonsurans strain 1119-0616), 147 nM with T. rubrum, 54 nM with T. equinum and 35 nM in the assay on T. mentagrophytes.
Take `CCC(C)(C)C(=O)O[C@H]1C[C@@H](C)C=C2C=C[C@H](C)[C@H](CC[C@@H](O)C[C@@H](O)CC(=O)O)[C@H]21` [simvistatin acid]: the IC50 is 24 to 62 nM in assay [2] (setting [5]); 30 nM in assay [2] (setting [6]); 29 nM in assay [3] (T. tonsurans strain 0924-0254); 50 nM in assay [3] (T. tonsurans strain 0924-1093); 52 nM in assay [3] (T. tonsurans strain 0924-1456); 52 nM in assay [3] (T. tonsurans strain 0924-1669). Further, the IC50 in assay [3] (T. tonsurans strain 1119-0616) stood at 62 nM; in the assay with T. rubrum, 303 nM; in the assay with T. equinum, 86 nM; in the assay on T. mentagrophytes it was 71 nM.
For Bleomycin, in assay [1], the “Prelim H ratio” value came out at 0.40 and the “Prelim L ratio” value amounted to 0.74. In addition, the upper asymptote in assay [2] (dose response (DR plate), reference strain of T. tonsurans) is reported as 93.1. Moreover, the IC50 in assay [2] (dose response (DR plate), reference strain of T. tonsurans, read-out: rMIC50) came to 263 nM.

(Values after patent publication US11154527B2, “Dermatophytosis prophylaxis and treatment” (The Children's Mercy Hospital, priority 2015, dated 2021).)
